The values below come from ChEMBL document CHEMBL1121976, “Structure-activity relationships for hallucinogenic N,N-dialkyltryptamines: photoelectron spectra and serotonin receptor affinities of methylthio and methylenedioxy derivatives” (J Med Chem, 1982).

Each structure is given as a SMILES string.

For the assay, the species on record is Rattus norvegicus. Description: The ability to inhibit the 5-HT-induced contraction of isolated rat fundus muscle was determined. The settings on record: read-out: pA2 (converted). Type of assay: functional.
Consider `CN(C)CCc1c[nH]c2ccc3c(c12)OCO3`, for which the Kb is 398 nM.

Turning to `CSc1ccc2c(CCN(C)C)c[nH]c2c1`, the Kb is 1200 nM.

Turning to `COc1ccc2c(CCN(C)C)c[nH]c2c1`, the Kb is 1700 nM.

For the molecule `CN(C)CCc1c[nH]c2cc3c(cc12)OCO3`, the Kb is 1020 nM.

Take `COc1ccc2[nH]cc(CCN(C)C)c2c1` [MEBUFOTENIN]: the Kb is 83.2 nM.

On to `COc1cccc2[nH]cc(CCN(C)C)c12`, for which the Kb was 676 nM.

With `CSc1cccc2[nH]cc(CCN(C)C)c12`, the Kb was 617 nM.

For `CSc1ccc2[nH]cc(CCN(C)C)c2c1`, the Kb is 145 nM.

In the case of `CN(C)CCc1c[nH]c2ccccc12` [N,N-DIMETHYLTRYPTAMINE], the Kb was 1000 nM.
